Some test systems named below: HCT-116; HCC 2998; NCI-H460; NCI-H23; PC-3; SF-295; UACC-257; Hs-578T; T47D; IGROV-1; M14; LOX IMVI; NCI/ADR-RES; ACHN; OVCAR-3; CCRF-CEM; SK-MEL-2; RPMI-8226; MDA-MB-231; Malme-3M.
Holding throughout (test): NCI-60 cell line screen, 48 h

The record followed here is ChEMBL document CHEMBL1201862, “PubChem BioAssay data set” (2004).

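Briefly, cells in 96-well plates were exposed to five compound concentrations for 48 h, and endpoints were estimated by linear interpolation. GI50 marks 50% less growth.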 The source made the active and inactive calls. No stated cut-off is given here; in the data, active = GI50 up to about 1.1 µM and inactive = higher.

In the case of `Nc1c2cc3ccc2nc2ccc(cc12)OCCOCCOCCOCCOCCOCCO3`, the GI50 with HCT-116, in the experiment with HCC 2998, in the experiment on NCI-H460, in the experiment on NCI-H23, in the experiment with PC-3 and with SF-295 was > 10 µM (inactive) each time. Besides, the GI50 in the experiment on UACC-257, in the experiment with Hs-578T, in the experiment on T47D, in the experiment with IGROV-1, with M14 and in the experiment on LOX IMVI was > 10 µM (inactive) throughout. For the same molecule, the GI50 with NCI/ADR-RES, with ACHN, in the experiment on OVCAR-3, in the experiment with CCRF-CEM, with SK-MEL-2 and in the experiment with RPMI-8226 was > 10 µM (inactive) each time. Also, the GI50 with MDA-MB-231 and in the experiment on Malme-3M was > 10 µM (inactive) throughout.

`O=CC(O)C(O)C(O)C(O)COC(=O)NCCCCC(=O)C(F)(F)C(F)(F)C(F)(F)C(F)(F)C(F)(F)C(F)(F)C(F)(F)F` (stereo not given): the GI50 with HCT-116 is 18 µM (inactive); with HCC 2998, 24.5 µM (inactive); with NCI-H460, 26.9 µM (inactive); with NCI-H23, 32.9 µM (inactive); with PC-3 it was 14.3 µM (inactive); in the experiment on SF-295, 23.2 µM (inactive). For the same molecule, the GI50 in the experiment on UACC-257 was > 10 µM (inactive); in the experiment with Hs-578T, 22.4 µM (inactive); with T47D, > 100 µM (inactive); in the experiment on IGROV-1, 29.7 µM (inactive); with M14, 23.7 µM (inactive); in the experiment with LOX IMVI, 15.3 µM (inactive). Moreover, the GI50 with NCI/ADR-RES is > 100 µM (inactive); in the experiment with ACHN it was 30.2 µM (inactive); with OVCAR-3, 47 µM (inactive); in the experiment on CCRF-CEM, 18.4 µM (inactive); in the experiment with SK-MEL-2 it was 27.6 µM (inactive); with RPMI-8226, 29.9 µM (inactive). The GI50 with MDA-MB-231 is 20 µM (inactive); in the experiment on Malme-3M, > 100 µM (inactive).

With `CCCCN(CCCC)CC(=O)c1ccc2cc(Cl)c3ccccc3c2c1`, the GI50 in the experiment on HCT-116 was 43.1 µM (inactive); in the experiment on HCC 2998 it was 32.1 µM (inactive); in the experiment on NCI-H460 it was 18.3 µM (inactive); in the experiment with NCI-H23, 46.9 µM (inactive); in the experiment on PC-3, 32 µM (inactive); in the experiment on SF-295, 31 µM (inactive). Besides, the GI50 with UACC-257 was 31.9 µM (inactive); in the experiment with Hs-578T, 35.7 µM (inactive); in the experiment on T47D, 17.7 µM (inactive); in the experiment on IGROV-1, 20.9 µM (inactive); in the experiment on M14, 76 µM (inactive); with LOX IMVI, 23.4 µM (inactive). Besides, the GI50 is 99.3 µM (inactive) in the experiment on NCI/ADR-RES; 20.4 µM (inactive) in the experiment with ACHN; 51.4 µM (inactive) in the experiment on OVCAR-3; > 100 µM (inactive) in the experiment on CCRF-CEM; 25.5 µM (inactive) in the experiment with SK-MEL-2; 7.98 µM (inactive) in the experiment on RPMI-8226. Besides, the GI50 was 31.4 µM (inactive) with MDA-MB-231 and 37.6 µM (inactive) in the experiment with Malme-3M.

In the case of `O=C(N/N=C\c1ccc(Cl)cc1)Nc1cccc2ccccc12`, the GI50 is 3.04 µM (inactive) in the experiment with HCT-116; 2.4 µM (inactive) with HCC 2998; 3.24 µM (inactive) with NCI-H460; 9.71 µM (inactive) with NCI-H23; 5.97 µM (inactive) in the experiment with PC-3; 2.52 µM (inactive) in the experiment with SF-295. For the same molecule, the GI50 in the experiment on UACC-257 is 8.75 µM (inactive); in the experiment on Hs-578T it was 2.67 µM (inactive); with T47D, 5.52 µM (inactive); in the experiment on IGROV-1, 3.49 µM (inactive); in the experiment on M14, 7.16 µM (inactive); in the experiment with LOX IMVI it was 4.49 µM (inactive). Further, the GI50 is > 25 µM (inactive) in the experiment on NCI/ADR-RES; 2.37 µM (inactive) with ACHN; 1.54 µM (inactive) in the experiment with OVCAR-3; 7.96 µM (inactive) with CCRF-CEM; 21.5 µM (inactive) with SK-MEL-2; 5.66 µM (inactive) in the experiment on RPMI-8226. The values for the GI50 with MDA-MB-231 and in the experiment on Malme-3M were 8.89 µM (inactive) and 4.24 µM (inactive), respectively.

Take `COC(=O)CCN1CCN(CCO)CC1C` (stereo not given): the GI50 with HCT-116, with HCC 2998, with NCI-H460, in the experiment on NCI-H23, with PC-3 and with SF-295 was > 10 µM (inactive) in each case. Further, the GI50 in the experiment on UACC-257, in the experiment on Hs-578T, with T47D, with IGROV-1, in the experiment on M14 and in the experiment with LOX IMVI was > 10 µM (inactive) each time. Further, the GI50 with NCI/ADR-RES, in the experiment with ACHN, in the experiment on OVCAR-3, in the experiment on CCRF-CEM, in the experiment on SK-MEL-2 and with RPMI-8226 was > 10 µM (inactive) throughout. Further, the GI50 in the experiment on MDA-MB-231 and in the experiment on Malme-3M was > 10 µM (inactive) in each case.

As for `O=c1cc(/N=N\c2ccc(Cl)cc2)[nH]c(=O)[nH]1`, the GI50 in the experiment with HCT-116 is 1.94 µM (inactive); in the experiment with HCC 2998, 3.78 µM (inactive); with NCI-H460 it was 5.52 µM (inactive); with NCI-H23, 7.67 µM (inactive); in the experiment on PC-3, 7.05 µM (inactive); in the experiment on SF-295, 13.9 µM (inactive). Moreover, the GI50 is 4.83 µM (inactive) in the experiment with UACC-257; 5.68 µM (inactive) in the experiment with Hs-578T; 3.18 µM (inactive) in the experiment on T47D; 3.44 µM (inactive) in the experiment on IGROV-1; 3.95 µM (inactive) in the experiment with M14; 1.57 µM (inactive) in the experiment on LOX IMVI. Moreover, the GI50 in the experiment on NCI/ADR-RES is 7.4 µM (inactive); in the experiment with ACHN, 2.32 µM (inactive); with OVCAR-3, 4.12 µM (inactive); in the experiment on CCRF-CEM, 1.44 µM (inactive); in the experiment with SK-MEL-2 it was 13.3 µM (inactive); in the experiment with RPMI-8226, 3.19 µM (inactive). For the same molecule, the GI50 is 3.6 µM (inactive) in the experiment with MDA-MB-231 and 3.01 µM (inactive) in the experiment on Malme-3M.

Take `C/C(=N/NC(=S)N1CCCCC1)c1ccccc1O`: the GI50 in the experiment on HCT-116 is > 10 µM (inactive); in the experiment with HCC 2998, > 31.6 µM (inactive); in the experiment with NCI-H460, 22.6 µM (inactive); in the experiment with NCI-H23, > 31.6 µM (inactive); in the experiment with PC-3, 28.8 µM (inactive); in the experiment with SF-295, > 31.6 µM (inactive). The GI50 in the experiment with UACC-257 is > 31.6 µM (inactive); in the experiment with Hs-578T it was 20.1 µM (inactive); with T47D, 8.26 µM (inactive); in the experiment on IGROV-1, > 41.2 µM (inactive); in the experiment on M14, > 31.6 µM (inactive); in the experiment with LOX IMVI, > 31.6 µM (inactive). In addition, the GI50 in the experiment with NCI/ADR-RES is 28.2 µM (inactive); with ACHN it was > 31.6 µM (inactive); in the experiment with OVCAR-3, 16.4 µM (inactive); in the experiment with CCRF-CEM, 21.7 µM (inactive); in the experiment on SK-MEL-2 it was > 31.6 µM (inactive); in the experiment on RPMI-8226, 13.6 µM (inactive). Further, the results for the GI50 in the experiment on MDA-MB-231 and in the experiment on Malme-3M were > 100 µM (inactive) and > 31.6 µM (inactive), respectively.

Consider `COc1cc(/C=C2\C[C@H]3[C@@H]4CC=C5C[C@@H](N6CCCC6)CC[C@]5(C)[C@H]4CC[C@]3(C)[C@H]2O)cc(OC)c1OC`, for which the GI50 in the experiment on HCT-116 was 13.2 µM (inactive); in the experiment with HCC 2998, 7.83 µM (inactive); with NCI-H460, 3.78 µM (inactive); with NCI-H23, 14.9 µM (inactive); in the experiment with PC-3, 13.4 µM (inactive); in the experiment on SF-295, 13 µM (inactive). The GI50 was 15 µM (inactive) with UACC-257; 6.11 µM (inactive) in the experiment on Hs-578T; 20 µM (inactive) with T47D; 15.9 µM (inactive) in the experiment on IGROV-1; 2.2 µM (inactive) with M14; 8.57 µM (inactive) with LOX IMVI. The GI50 in the experiment with NCI/ADR-RES was 15.8 µM (inactive); in the experiment with ACHN, 15.8 µM (inactive); in the experiment on OVCAR-3 it was 15.5 µM (inactive); in the experiment with CCRF-CEM it was 3.72 µM (inactive); in the experiment on SK-MEL-2 it was 19.5 µM (inactive); with RPMI-8226 it was 6.4 µM (inactive). For the same molecule, the values for the GI50 in the experiment on MDA-MB-231 and in the experiment on Malme-3M were 17.5 µM (inactive) and 11.7 µM (inactive), respectively.

With `COc1ccc2nc3cc([N+](=O)[O-])ccc3c(NNc3ccc(Cl)cc3)c2c1`, the GI50 in the experiment on HCT-116 was 5.07 µM (inactive); in the experiment with HCC 2998 it was 8.39 µM (inactive); in the experiment with NCI-H460, 2.88 µM (inactive); in the experiment on NCI-H23, 45.2 µM (inactive); with PC-3, 24.8 µM (inactive); in the experiment with SF-295, 56.8 µM (inactive). Moreover, the GI50 in the experiment with UACC-257 is 1.01 µM (active); in the experiment with Hs-578T it was 29.9 µM (inactive); with T47D, 32.5 µM (inactive); in the experiment with IGROV-1, 2.94 µM (inactive); in the experiment on M14, 34.7 µM (inactive); in the experiment with LOX IMVI it was 26.9 µM (inactive). Further, the GI50 in the experiment on NCI/ADR-RES is 32.6 µM (inactive); in the experiment on ACHN, 32.9 µM (inactive); in the experiment on OVCAR-3, 2.39 µM (inactive); with CCRF-CEM, 22 µM (inactive); in the experiment with SK-MEL-2, 18.7 µM (inactive); in the experiment on RPMI-8226, 22.8 µM (inactive). The GI50 is 19.6 µM (inactive) in the experiment with MDA-MB-231 and 43.2 µM (inactive) with Malme-3M.

`COc1ccc2c(c1)-c1[nH]c3ccccc3c1CC2`: the GI50 in the experiment with HCT-116 is 16.9 µM (inactive); in the experiment with HCC 2998, 10.2 µM (inactive); with NCI-H460, 15.6 µM (inactive); in the experiment on NCI-H23, 13.6 µM (inactive); with PC-3 it was 14.9 µM (inactive); in the experiment with SF-295, 14.2 µM (inactive). Also, the GI50 was 16.3 µM (inactive) with UACC-257; 15.4 µM (inactive) in the experiment with Hs-578T; 13.5 µM (inactive) with T47D; 3.9 µM (inactive) with IGROV-1; 17.4 µM (inactive) with M14; 18.2 µM (inactive) in the experiment on LOX IMVI. The GI50 in the experiment with NCI/ADR-RES was 11.9 µM (inactive); in the experiment with ACHN, 18.1 µM (inactive); in the experiment with OVCAR-3 it was 18.2 µM (inactive); in the experiment on CCRF-CEM it was 18 µM (inactive); in the experiment on SK-MEL-2, 15.5 µM (inactive); in the experiment with RPMI-8226, 20.4 µM (inactive). Besides, the GI50 with MDA-MB-231 is 16.8 µM (inactive); in the experiment on Malme-3M it was 12.4 µM (inactive).
